Earlier results, collected in US20230398069A1, “ETOPOSIDE TONIRIBATE FORMULATION” (CELLACT PHARMA GMBH, priority 2020, published 2023).

Settings: API

COc1cc([C@@H]2c3cc4c(cc3[C@@H](O[C@@H]3O[C@@H]5CO[C@@H](C)O[C@H]5[C@@H](O)[C@H]3O)[C@H]3COC(=O)[C@H]23)OCO4)cc(OC)c1OC(=O)OCC1COC(C)(C)O1 (some centres unmarked) [Etoposide toniribate]
solubility in water: poorly soluble in water | stability at acidic and basic pH: unstable at acidic and basic pH
